{
  "source": "PubChem BioAssay AID1259407",
  "about": "(Chemical Carcinogenesis Research Information System (CCRIS), 2018)",
  "system": "CCRIS mutagenicity, Ames/micronucleus/aberration tests",
  "assay": "CCRIS mutagenicity studies",
  "key": {"[1]": {"settings": "Test System: AMES SALMONELLA TYPHIMURIUM, Strain/Indicator: TA100, Metabolic Activation: NONE, Method: PREINCUBATION"}, "[2]": {"settings": "Test System: AMES SALMONELLA TYPHIMURIUM, Strain/Indicator: TA98, Metabolic Activation: NONE, Method: STANDARD PLATE"}},
  "note": "Active and inactive are the calls of the source. The rule behind the calls is not given here.",
  "data": [
    {"smiles": "OC[P+](CO)(CO)CO", "values": [
      {"measurement": "mutagenic call", "setting": "End Point: IN VITRO CHROMOSOMAL ABERRATIONS, Test System: CHO CELLS, Metabolic Activation: NONE", "result": "active; positive"},
      {"measurement": "mutagenic call", "setting": "Test System: AMES SALMONELLA TYPHIMURIUM, Strain/Indicator: TA97, Metabolic Activation: HAMSTER, LIVER, S-9, AROCLOR 1254 (10%), Method: PREINCUBATION", "result": "inactive; negative"},
      {"measurement": "mutagenic call", "setting": "Test System: AMES SALMONELLA TYPHIMURIUM, Strain/Indicator: TA97, Metabolic Activation: HAMSTER, LIVER, S-9, AROCLOR 1254 (30%), Method: PREINCUBATION", "result": "inactive; negative"},
      {"measurement": "mutagenic call", "setting": "Test System: AMES SALMONELLA TYPHIMURIUM, Strain/Indicator: TA97, Metabolic Activation: NONE, Method: PREINCUBATION", "result": "inactive; negative"},
      {"measurement": "mutagenic call", "setting": "Test System: AMES SALMONELLA TYPHIMURIUM, Strain/Indicator: TA97, Metabolic Activation: RAT, LIVER, S-9, AROCLOR 1254 (10%), Method: PREINCUBATION", "result": "inactive; negative"},
      {"measurement": "mutagenic call", "setting": "Test System: AMES SALMONELLA TYPHIMURIUM, Strain/Indicator: TA97, Metabolic Activation: RAT, LIVER, S-9, AROCLOR 1254 (30%), Method: PREINCUBATION", "result": "inactive; negative"},
      {"measurement": "mutagenic call", "setting": "Test System: AMES SALMONELLA TYPHIMURIUM, Strain/Indicator: TA98, Metabolic Activation: HAMSTER, LIVER, S-9, AROCLOR 1254 (10%), Method: PREINCUBATION", "result": "inactive; negative"},
      {"measurement": "mutagenic call", "setting": "Test System: AMES SALMONELLA TYPHIMURIUM, Strain/Indicator: TA98, Metabolic Activation: HAMSTER, LIVER, S-9, AROCLOR 1254 (30%), Method: PREINCUBATION", "result": "inactive; negative"},
      {"measurement": "mutagenic call", "setting": "Test System: AMES SALMONELLA TYPHIMURIUM, Strain/Indicator: TA98, Metabolic Activation: HAMSTER, LIVER, S-9, AROCLOR 1254, Method: PREINCUBATION", "result": "inactive; negative"},
      {"measurement": "mutagenic call", "setting": "Test System: AMES SALMONELLA TYPHIMURIUM, Strain/Indicator: TA98, Metabolic Activation: NONE, Method: PREINCUBATION", "result": "inactive; negative"},
      {"measurement": "mutagenic call", "setting": "Test System: AMES SALMONELLA TYPHIMURIUM, Strain/Indicator: TA98, Metabolic Activation: RAT, LIVER, S-9, AROCLOR 1254 (10%), Method: PREINCUBATION", "result": "inactive; negative"},
      {"measurement": "mutagenic call", "setting": "Test System: AMES SALMONELLA TYPHIMURIUM, Strain/Indicator: TA98, Metabolic Activation: RAT, LIVER, S-9, AROCLOR 1254 (30%), Method: PREINCUBATION", "result": "inactive; negative"},
      {"measurement": "mutagenic call", "setting": "Test System: AMES SALMONELLA TYPHIMURIUM, Strain/Indicator: TA98, Metabolic Activation: RAT, LIVER, S-9, AROCLOR 1254, Method: PREINCUBATION", "result": "inactive; negative"},
      {"measurement": "mutagenic call", "setting": "Test System: AMES SALMONELLA TYPHIMURIUM, Strain/Indicator: TA100, Metabolic Activation: HAMSTER, LIVER, S-9, AROCLOR 1254 (10%), Method: PREINCUBATION", "result": "inactive; negative"},
      {"measurement": "mutagenic call", "setting": "Test System: AMES SALMONELLA TYPHIMURIUM, Strain/Indicator: TA100, Metabolic Activation: HAMSTER, LIVER, S-9, AROCLOR 1254 (30%), Method: PREINCUBATION", "result": "inactive; negative"},
      {"measurement": "mutagenic call", "setting": "Test System: AMES SALMONELLA TYPHIMURIUM, Strain/Indicator: TA100, Metabolic Activation: HAMSTER, LIVER, S-9, AROCLOR 1254, Method: PREINCUBATION", "result": "inactive; negative"},
      {"measurement": "mutagenic call", "setting": "[1]", "result": "inactive; negative"},
      {"measurement": "mutagenic call", "setting": "Test System: AMES SALMONELLA TYPHIMURIUM, Strain/Indicator: TA100, Metabolic Activation: RAT, LIVER, S-9, AROCLOR 1254 (10%), Method: PREINCUBATION", "result": "inactive; negative"},
      {"measurement": "mutagenic call", "setting": "Test System: AMES SALMONELLA TYPHIMURIUM, Strain/Indicator: TA100, Metabolic Activation: RAT, LIVER, S-9, AROCLOR 1254 (30%), Method: PREINCUBATION", "result": "inactive; negative"},
      {"measurement": "mutagenic call", "setting": "Test System: AMES SALMONELLA TYPHIMURIUM, Strain/Indicator: TA100, Metabolic Activation: RAT, LIVER, S-9, AROCLOR 1254, Method: PREINCUBATION", "result": "inactive; negative"},
      {"measurement": "mutagenic call", "setting": "Test System: AMES SALMONELLA TYPHIMURIUM, Strain/Indicator: TA1535, Metabolic Activation: HAMSTER, LIVER, S-9, AROCLOR 1254 (10%), Method: PREINCUBATION", "result": "inactive; negative"},
      {"measurement": "mutagenic call", "setting": "Test System: AMES SALMONELLA TYPHIMURIUM, Strain/Indicator: TA1535, Metabolic Activation: HAMSTER, LIVER, S-9, AROCLOR 1254 (30%), Method: PREINCUBATION", "result": "inactive; negative"},
      {"measurement": "mutagenic call", "setting": "Test System: AMES SALMONELLA TYPHIMURIUM, Strain/Indicator: TA1535, Metabolic Activation: HAMSTER, LIVER, S-9, AROCLOR 1254, Method: PREINCUBATION", "result": "inactive; negative"},
      {"measurement": "mutagenic call", "setting": "Test System: AMES SALMONELLA TYPHIMURIUM, Strain/Indicator: TA1535, Metabolic Activation: NONE, Method: PREINCUBATION", "result": "inactive; negative"},
      {"measurement": "mutagenic call", "setting": "Test System: AMES SALMONELLA TYPHIMURIUM, Strain/Indicator: TA1535, Metabolic Activation: RAT, LIVER, S-9, AROCLOR 1254 (10%), Method: PREINCUBATION", "result": "inactive; negative"},
      {"measurement": "mutagenic call", "setting": "Test System: AMES SALMONELLA TYPHIMURIUM, Strain/Indicator: TA1535, Metabolic Activation: RAT, LIVER, S-9, AROCLOR 1254 (30%), Method: PREINCUBATION", "result": "inactive; negative"},
      {"measurement": "mutagenic call", "setting": "Test System: AMES SALMONELLA TYPHIMURIUM, Strain/Indicator: TA1535, Metabolic Activation: RAT, LIVER, S-9, AROCLOR 1254, Method: PREINCUBATION", "result": "inactive; negative"},
      {"measurement": "mutagenic call", "setting": "Test System: AMES SALMONELLA TYPHIMURIUM, Strain/Indicator: TA1537, Metabolic Activation: HAMSTER, LIVER, S-9, AROCLOR 1254 (10%), Method: PREINCUBATION", "result": "inactive; negative"},
      {"measurement": "mutagenic call", "setting": "Test System: AMES SALMONELLA TYPHIMURIUM, Strain/Indicator: TA1537, Metabolic Activation: HAMSTER, LIVER, S-9, AROCLOR 1254 (30%), Method: PREINCUBATION", "result": "inactive; negative"},
      {"measurement": "mutagenic call", "setting": "Test System: AMES SALMONELLA TYPHIMURIUM, Strain/Indicator: TA1537, Metabolic Activation: HAMSTER, LIVER, S-9, AROCLOR 1254, Method: PREINCUBATION", "result": "inactive; negative"},
      {"measurement": "mutagenic call", "setting": "Test System: AMES SALMONELLA TYPHIMURIUM, Strain/Indicator: TA1537, Metabolic Activation: NONE, Method: PREINCUBATION", "result": "inactive; negative"},
      {"measurement": "mutagenic call", "setting": "Test System: AMES SALMONELLA TYPHIMURIUM, Strain/Indicator: TA1537, Metabolic Activation: RAT, LIVER, S-9, AROCLOR 1254 (10%), Method: PREINCUBATION", "result": "inactive; negative"},
      {"measurement": "mutagenic call", "setting": "Test System: AMES SALMONELLA TYPHIMURIUM, Strain/Indicator: TA1537, Metabolic Activation: RAT, LIVER, S-9, AROCLOR 1254 (30%), Method: PREINCUBATION", "result": "inactive; negative"},
      {"measurement": "mutagenic call", "setting": "Test System: AMES SALMONELLA TYPHIMURIUM, Strain/Indicator: TA1537, Metabolic Activation: RAT, LIVER, S-9, AROCLOR 1254, Method: PREINCUBATION", "result": "inactive; negative"},
      {"measurement": "mutagenic call", "setting": "Test System: MOUSE LYMPHOMA, Strain/Indicator: L5178Y (TK+/TK-), Metabolic Activation: NONE, Method: SUSPENSION/PLATE", "result": "active; positive"}
    ]},
    {"smiles": "CC(=O)Oc1ccc2c(c1)C1(C)OOC1(C)O2", "note": "(stereo unspecified)", "values": [
      {"measurement": "mutagenic call", "setting": "[1]", "result": "active; positive"}
    ]},
    {"smiles": "COCOC", "values": [
      {"measurement": "mutagenic call", "setting": "Test System: Mouse lymphoma, Strain/Indicator: L5178Y (tk+/tk-), Metabolic Activation: None, Method: Suspension/plate", "result": "inactive; negative"},
      {"measurement": "mutagenic call", "setting": "Test System: Mouse lymphoma, Strain/Indicator: L5178Y (tk+/tk-), Metabolic Activation: Rat, Liver, S-9, Aroclor 1254, Method: Suspension/plate", "result": "inactive; negative"}
    ]},
    {"smiles": "CC(C)NCC(O)COc1cccc2[nH]c3ccccc3c12", "note": "(stereo unspecified)", "values": [
      {"measurement": "mutagenic call", "setting": "[2]", "result": "inactive; negative"},
      {"measurement": "mutagenic call", "setting": "Test System: AMES SALMONELLA TYPHIMURIUM, Strain/Indicator: TA98, Metabolic Activation: RAT, LIVER, S-9, AROCLOR 1254, Method: STANDARD PLATE", "result": "inactive; negative"},
      {"measurement": "mutagenic call", "setting": "Test System: AMES SALMONELLA TYPHIMURIUM, Strain/Indicator: TA100, Metabolic Activation: NONE, Method: STANDARD PLATE", "result": "inactive; negative"},
      {"measurement": "mutagenic call", "setting": "Test System: AMES SALMONELLA TYPHIMURIUM, Strain/Indicator: TA100, Metabolic Activation: RAT, LIVER, S-9, AROCLOR 1254, Method: STANDARD PLATE", "result": "inactive; negative"}
    ]},
    {"smiles": "O=[N+]([O-])c1ccc(-c2csc(Cl)n2)o1", "values": [
      {"measurement": "mutagenic call", "setting": "Test System: E. COLI, Strain/Indicator: WP2, Metabolic Activation: NONE, Method: SPOT", "result": "active; positive"},
      {"measurement": "mutagenic call", "setting": "Test System: E. COLI, Strain/Indicator: WP2 UVRA, Metabolic Activation: NONE, Method: SPOT", "result": "active; positive"}
    ]},
    {"smiles": "O=[N+]([O-])C1CCCCC1", "values": [
      {"measurement": "mutagenic call", "setting": "Test System: UDS RAT HEPATOCYTES, Strain/Indicator: THY INCORP, Metabolic Activation: NONE", "result": "active; positive"}
    ]},
    {"smiles": "O=[N+]([O-])c1ccc2cn[nH]c2c1", "values": [
      {"measurement": "mutagenic call", "setting": "[2]", "result": "active; positive"}
    ]}
  ]
}
